Source: PMC3962378, “Molecular Mechanism of Strict Substrate Specificity of an Extradiol Dioxygenase, DesB, Derived from Sphingobium sp. SYK-6” (PLoS ONE, 2014)

Target: T1, DesB (Sphingomonas paucimobilis, UniProt Q5NTE5)
T1 construct: overexpressed in E. coli, purified to near homogeneity; swapped homodimer with active sites at the subunit interface; 418 residues; Fe(II) form
T1 sequence (Q5NTE5 1-418): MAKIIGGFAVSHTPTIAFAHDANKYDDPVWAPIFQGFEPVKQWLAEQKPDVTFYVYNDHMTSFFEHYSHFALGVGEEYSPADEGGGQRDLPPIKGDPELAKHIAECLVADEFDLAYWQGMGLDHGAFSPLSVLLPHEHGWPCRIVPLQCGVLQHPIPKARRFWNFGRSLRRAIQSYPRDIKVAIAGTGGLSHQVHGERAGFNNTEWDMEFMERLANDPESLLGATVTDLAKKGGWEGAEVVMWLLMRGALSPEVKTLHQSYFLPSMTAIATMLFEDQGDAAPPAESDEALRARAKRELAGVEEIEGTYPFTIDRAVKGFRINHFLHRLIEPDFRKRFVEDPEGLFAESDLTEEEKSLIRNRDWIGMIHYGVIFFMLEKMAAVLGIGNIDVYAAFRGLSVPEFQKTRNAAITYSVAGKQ
Test: X-ray crystal structure (soak)
Type: binding
Conditions: anaerobic, pH 7.75, Fe(II), active site, 2.40 A

Structure (SMILES) | X-ray crystal structure (soak) (10 mM gallate soak, further complexes 3WKU, 3WPM (co-crystal), 3WR3, 3WR4) | X-ray crystal structure (soak) (10 mM PCA soak, flipped non-productive binding, not turned over)
O=C(O)c1cc(O)c(O)c(O)c1 [gallate] | gallate is bound to the active site through several hydrogen bonds | –
O=C(O)c1ccc(O)c(O)c1 [PCA] | – | bound PCA was found in the active site of the anaerobic DesB-PCA complex
